Legend:
[1] = test system: transcripts in patient PBMCs; assay: Spearman's rank correlation of changes in PBMC gene expression (HgU95A arrays) with cumulative AUCsum; assay type: in vivo, human; conditions: change in PBMC expression from baseline
Text: Consent for the pharmacogenomic portion of the clinical study was received and the project was approved by the local Institutional Review Boards at the participating clinical sites. Blood samples for pharmacogenomic characterization were drawn into cell purification tubes (CPT, Becton Dickinson) prior to therapy and following approximately 8 and 16 weeks of treatment. All blood samples were shipped overnight to the Wyeth Department of Molecular Medicine in Andover, Mass., and PBMCs were isolated from the whole blood samples (8 mL) in CPT tubes according to the manufacturer's procedure. For expression profiling analyses, total RNA was isolated from PBMC pellets using the RNeasy mini kit (Qiagen, Valencia, Calif.) and labeled probe for oligonucleotide arrays was prepared using a modification of the procedure described by Lockhart, et al., NAT. BIOTECHNOL., 14:1675-1680 (1996). […] The “average difference” values for each transcript were normalized to “frequency” values using the scaled frequency normalization method (Hill, et al, GENOME BIOL. 2:research0055.1-0055.13 (2001)) in which the average differences for 11 control cRNAs with known abundance spiked into each hybridization solution were used to generate a global calibration curve. This calibration was then used to convert average difference values for all transcripts to frequency estimates, stated in units of parts per million ranging from 1:300,000 (˜3 parts per million (ppm)) to 1:1000 (1000 ppm). PBMC gene expression data were normalized by the scaled frequency normalization method as described above. […] The filter which removes transcripts called absent in all samples is based upon the absent/present decision call made by the […] 3.2 software, which reflects the relative intensity of hybridization of the labeled probes to perfectly matched oligonucleotides versus hybridization to mismatched oligonucleotides for each transcript on the HgU95A chip. The filter that removes transcripts with a frequency of less than 10 ppm in all samples is designed to remove low abundance transcripts which may have variable expression in technical replicates. […] Changes from pretreatment levels were calculated based on log-transformed expression levels. […] Pairwise correlations were calculated to assess the association between individually derived exposure metrics and gene expression levels measured by HgU95A Affymetrix microarrays during the course of therapy. Correlations were run for two pharmacokinetic parameters—cumulative AUC and cumulative AUCsum, and for four measures of expression level—log2-transformed scaled frequency at 8 weeks, log2-transformed scaled frequency at 16 weeks, the difference between log2-transformed scaled frequency at 8 weeks and baseline, and the difference between log2-transformed scaled frequency at 16 weeks and baseline. Spearman's rank correlations, which are not sensitive to potential non-normal distributional properties of the pharmacokinetic parameters, were computed. The p-value for the hypothesis that the correlation was equal to 0 was calculated for each pairwise correlation. […] The results of permutation tests run for cumulative AUCsum vs expression change at 8 weeks and at 16 weeks are shown in Tables 5a and 5b. […] Table 6 also includes FARP1 (Accession No. A1701049). […] Accession numbers for the 19 transcripts are presented in Table 6, along with columns indicating the coefficient of variation observed in healthy individuals (% CV), the p-value observed in the Spearman correlation, the actual magnitude of the correlation, and the corresponding gene names.

[2] = Pharmacodynamic correlation of drug exposure metrics to severity and duration of adverse events; assay type: in vivo, human
Procedure: For the cumulative dose drug exposure, cumulative AUCsum was determined. Each patients' specific dosing history while on trial medication was determined and used to derive respective AUCs experienced by each patient for the duration of time from start of treatment to time of highest severity adverse event. This test included all the data, irrespective of AE severity, and was analyzed using the asymptotic Mantel-Haenszel Test for Ordinal Association. A severity score of “1” indicating the lowest severity and “3” indicating the highest severity was used. […] Pharmacokinetic parameters were grouped into low, medium and high categories with an equal number of patients in each category. […] Estimation of cumulative exposure was determined for each patient as described above. Duration of an AE was determined by calculating the time interval for which a given patient experienced a given AE. […] The correlations between AE duration and the continuous pharmacokinetic variables were calculated using Spearman rank correlation test (SAS Institute Inc., SAS® […] REFERENCE, Version 8, Cary, N C: SAS Institute Inc., 1999). […] Results of the pharmacodynamic analysis using AUCsum (discrete predictor), cumulative AUCsum (cumulative predictor variable), Ceoi (peak exposure predictor) are shown in Table 12 as derived from 49 differing adverse events recorded for those patients included in the population analysis. […] Cumulative AUCsum refers to aggregate AUCsum based on individual patient dosing history. Ceoi is the CCI-779 concentration observed at end of infusion.

clinical = conditions: human, whole blood
Procedure: In a randomized, double-blind, multicenter trial, once-weekly intravenous doses of 25-, 75-, or 250-mg of CCI-779 were administered to patients with advanced renal cancer that were either previously treated, or untreated and not appropriate candidates for high dose interlukin-2 therapy. Whole blood for CCI-779 and metabolite concentrations was drawn for population pharmacokinetic analysis, and Bayesian-predicted area under the concentration-time curves for parent drug (AUC), parent plus metabolite (AUCsum), and cumulative AUC and AUCsum were derived.
For CCI-779 clearance, factors for dose, attenuation of exposure with multiple-dose, and effect of body surface area were included.
The following examples were based on a randomized, double-blind, multicenter, outpatient phase 2 study of CCI-779 administered by 30 minute intravenous infusion (via an automatic dispensing pump) in patients with advanced RCC. Eligible patients were randomly assigned to treatment in a 1:1:1 ratio to receive 25 mg, 75 mg, or 250 mg of CCI-779 weekly until evidence of disease progression.
Full pharmacokinetic profiling was planned in a subset of patients, with remaining patients to provide sparse sampling.
The bioanalytical method for CCI-779 was performed using whole blood in a liquid chromatography/tandem mass spectrometry (LC/MS/MS) procedure with deuterated internal standard.
In order to characterize the pharmacokinetic profiles of patients providing sparse blood sampling, fully and sparsely sampled patient data were analyzed collectively using a population pharmacokinetic method and the NONMEM application (version 1.0, Revision 5.0 on Windows NT 4.0 computer with Pentium processor, NONMEM Project Group, University of California at San Francisco, Calif.). […] Data were therefore modeled separately and segregated by analyte into two separate data sets with dose, time/duration of administration, and demographic information. […] Construction of the NONMEM infile was performed using SAS (version 8.1) on a Sun Microsystems mainframe computer with Sun OS 5.8. […] In both cases, the model-derived value for AUC for a given patient and analyte were obtained from the quotient of CCI-779 Dose/Clearance (CL), in which CL was obtained from Bayesian estimation and the POSTHOC option of NONMEM.
During model building, an exponential error model was applied to the kinetic model.

[3] = Pharmacokinetics of CCI-779 in patients with cancer following intravenous administration; conditions: human, whole blood
Text: The pharmacokinetics of CCI-779 is being studied in patients with cancer receiving CCI-779 either alone or in combination with other chemotherapeutic agents following intravenous administration. Intravenous dosage schedules previously investigated include a cyclical schedule (daily for 5 days every two weeks) and a once-weekly regimen. […] The following examples evaluated the safety, efficacy, and pharmacokinetic/pharmacodynamic relationship to clinical response of three doses of CCI-779, when administered to patients with advanced, refractory renal cell cancer (RCC).

- clearance (clinical; intravenous): 24.2 mL/min
- clearance (clinical; iv): 23.2 mL/min
- half-life [3]: ~14 h
- clearance ([3]; 25 mg): ~333 mL/min
- clearance ([3]; 250 mg): ~1670 mL/min
Structure (SMILES): CO[C@H]1C[C@@H]2CC[C@@H](C)[C@@](O)(O2)C(=O)C(=O)N2CCCC[C@H]2C(=O)O[C@H]([C@H](C)C[C@@H]2CC[C@@H](OC(=O)C(C)(CO)CO)[C@H](OC)C2)CC(=O)[C@H](C)/C=C(\C)[C@@H](O)[C@@H](OC)C(=O)[C@H](C)C[C@H](C)/C=C/C=C/C=C/1C [CCI-779]
- Correlation with AUCsum at 16 weeks: KIAA0857 ([1]; AB020664, P-value 0.0006): 0.69
- Correlation with AUCsum at 8 weeks: KIAA0857 ([1]; AB020664, P-value 0.9627): 0.01
- Correlation with AUCsum at 16 weeks: B4GALT3 ([1]; AF038661, P-value 0.0002): 0.73
- Correlation with AUCsum at 8 weeks: B4GALT3 ([1]; AF038661, P-value 0.2589): 0.21
- Correlation with AUCsum at 16 weeks: SLC25A11 ([1]; AF070548, P-value 0.0006): 0.69
- Correlation with AUCsum at 8 weeks: SLC25A11 ([1]; AF070548, P-value 0.0881): 0.32
- Correlation with AUCsum at 16 weeks: IKBKG ([1]; AF074382, P-value 0.0007): 0.68
- Correlation with AUCsum at 8 weeks: IKBKG ([1]; AF074382, P-value 0.1013): 0.30
- Correlation with AUCsum at 16 weeks: UNK_AI147237 ([1]; AI147237, P-value 0.0004): 0.70
- Correlation with AUCsum at 8 weeks: UNK_AI147237 ([1]; AI147237, P-value 0.0877): 0.32
- Correlation with AUCsum at 16 weeks: COX6A1 ([1]; AI540925, P-value 0.0002): −0.73
- Correlation with AUCsum at 8 weeks: COX6A1 ([1]; AI540925, P-value 0.0050): −0.50
- Correlation with AUCsum at 16 weeks: FARP1 ([1]; AI701049, P-value 0.001): 0.66
- Correlation with AUCsum at 8 weeks: FARP1 ([1]; AI701049, P-value 0.0089): 0.47
- Correlation with AUCsum at 16 weeks: U2AF65 ([1]; AI762438, P-value 0.0001): 0.74
- Correlation with AUCsum at 8 weeks: U2AF65 ([1]; AI762438, P-value 0.2209): 0.23
- Correlation with AUCsum at 16 weeks: UNK_AL022318 ([1]; AL022318, P-value 0.0005): 0.69
- Correlation with AUCsum at 8 weeks: UNK_AL022318 ([1]; AL022318, P-value 0.2617): 0.21
- Correlation with AUCsum at 16 weeks: UNK_AL046394 ([1]; AL046394, P-value 0.0002): 0.72
- Correlation with AUCsum at 8 weeks: UNK_AL046394 ([1]; AL046394, P-value 0.0999): 0.31
- Correlation with AUCsum at 16 weeks: UNK_H98552 ([1]; H98552, P-value 0.0003): 0.71
- Correlation with AUCsum at 8 weeks: UNK_H98552 ([1]; H98552, P-value 0.0308): 0.39
- Correlation with AUCsum at 16 weeks: DPEP1 ([1]; J05257, P-value 0.0005): 0.69
- Correlation with AUCsum at 8 weeks: DPEP1 ([1]; J05257, P-value 0.0348): 0.39
- Correlation with AUCsum at 16 weeks: CYP11A ([1]; M14565, P-value 0.0006): 0.69
- Correlation with AUCsum at 8 weeks: CYP11A ([1]; M14565, P-value 0.0838): 0.32
- Correlation with AUCsum at 16 weeks: TNNT1 ([1]; M19309, P-value 0.0004): 0.70
- Correlation with AUCsum at 8 weeks: TNNT1 ([1]; M19309, P-value 0.2684): 0.21
- Correlation with AUCsum at 16 weeks: PML ([1]; M79463, P-value 0.0007): 0.68
- Correlation with AUCsum at 8 weeks: PML ([1]; M79463, P-value 0.0378): 0.38
- Correlation with AUCsum at 16 weeks: SLC19A1 ([1]; U17566, P-value 0.0007): 0.68
- Correlation with AUCsum at 8 weeks: SLC19A1 ([1]; U17566, P-value 0.1220): 0.29
- Correlation with AUCsum at 16 weeks: USP11 ([1]; U44839, P-value 0.0001): 0.76
- Correlation with AUCsum at 8 weeks: USP11 ([1]; U44839, P-value 0.3998): 0.16
- Correlation with AUCsum at 16 weeks: ACTN4 ([1]; U48734, P-value 0.0003): 0.71
- Correlation with AUCsum at 8 weeks: ACTN4 ([1]; U48734, P-value 0.0721): 0.33
- Correlation with AUCsum at 16 weeks: FOXM1 ([1]; U90917, P-value 0.0001): 0.75
- Correlation with AUCsum at 8 weeks: FOXM1 ([1]; U90917, P-value 0.206): 0.24
- Correlation with AUCsum at 16 weeks: SULT2B1 ([1]; U92315, P-value 0.0005): 0.69
- Correlation with AUCsum at 8 weeks: SULT2B1 ([1]; U92315, P-value 0.1066): 0.30
- Spearman correlation to Ceoi: duration of Pain abdomen ([2]; N patients 13, P-value 0.01): 0.01 (0.873)
- Correlation to Ceoi: severity of Myalgia ([2]; N patients 13, P-value 0.013, Ceoi = CCI-779 concentration at end of infusion): 0.013 (0.414)
- Correlation to Ceoi: severity of Fever ([2]; N patients 17, P-value 0.022): 0.022 (0.402)
- Spearman correlation to Ceoi: duration of Fever ([2]; N patients 17, P-value 0.04): 0.04 (−0.626)
- Spearman correlation to Ceoi: duration of Anorexia ([2]; N patients 22, P-value 0.015): 0.015 (0.597)
